# Measured values reported in US20240401154A1, “SYNTHESIS AND PREPARATION OF ULTRA-LOW VISCOSITY AND HIGH MAGNETIC SUSCEPTIBILITY MAGNETIC IONIC LIQUIDS” (priority 2023, published 2024).
# Marks after values point to notes of the source that are not given here.
# Legend:
# Format in all cases: physicochemical
# [1] = Viscosity, Brookfield DVI cone and plate viscometer; conditions: 21.7° C.; neat MIL dried 48 hours under vacuum
# Protocol: A Brookfield DVI cone and plate viscometer equipped with a CPA-51Z cone spindle was employed to obtain viscosity measurements at […] using approximately 0.5 g of each MIL after extensive drying for 48 hours under vacuum. Viscosity measurements were conducted at 21.7° C. for 15 lanthanide and transition metal MILs examined in this study.
# Viscosity measurements were conducted at 21.7° C. for 15 lanthanide and transition metal MILs examined in this study.
# [2] = Effective magnetic moment from magnetic susceptibility balance (MSB); conditions: per formula unit
# Protocol: Magnetic properties were analyzed using a magnetic susceptibility balance (MSB, Sherwood Scientific, Cambridge, UK) and a Quantum Design Superconducting Quantum Interference Device (SQUID) magnetometer (MPMS XL-7). The magnetic properties of transition metal MILs were further studied using a SQUID magnetometer to confirm their paramagnetic nature as well as if any magnetic transition occurs in the samples.
# Magnetic susceptibility (XM) was calculated through Equation (1).
# Effective magnetic moment (μeff) was calculated through Equation (2). In Equation (2), T represents the temperature at which the magnetic susceptibility measurements were conducted.
# 15 MILs incorporating rare-earth and transition metals were examined using a magnetic susceptibility balance (MSB).
# [3] = Solubility of MILs in organic solvents and water
# Text: The solubility of lanthanide and transition metal MILs was investigated in popular traditional organic solvents. […]
# The solubility of lanthanide and transition metal MILs was investigated in popular traditional organic solvents.
# [4] = Thermal stability, MIL as GC stationary phase with FID; conditions: exponential increase in response beyond 2,000 pA
# Protocol: (§1) The thermal stability of MILs was measured from 40 to 350° C. at a ramp rate of 5° C. min^−1 by performing thermogravimetric analysis (TGA) using a NETZSCH STA 449 F1 Jupiter thermal analyzer (Selb, Germany). To further investigate the thermal stability of MILs using a more sensitive technique, the solvents were employed as a gas chromatographic (GC) stationary phase and subjected to an oven temperature program from 40 to 200° C. at a ramp rate of 1° C. min^−1 and decomposition/degradation products detected using an ultra-sensitive flame ionization detector (FID), with all measurements being performed on an Agilent Technologies 7890B gas chromatograph (Santa Clara, CA, USA).
# To further investigate the thermal stability of MILs using a more sensitive technique, the solvents were employed as a gas chromatographic (GC) stationary phase and subjected to an oven temperature program from 40 to 200° C. at a ramp rate of 1° C. min^−1 and decomposition/degradation products detected using an ultra-sensitive flame ionization detector (FID).
# [5] = Thermal stability by thermogravimetric analysis (TGA); conditions: TGA at 10% weight loss
# Protocol: as §1
# Volitization/degradation of MILs as a function of temperature were measured using thermogravimetric analysis. The thermal stability of magnetic ionic liquids was measured from 40 to 350° C. at a ramp rate of 5° C. min^−1 by performing thermogravimetric analysis (TGA) using a NETZSCH STA 449 F1 Jupiter thermal analyzer (Selb, Germany).
# To investigate the ability of DGE-based MILs to withstand elevated temperatures without undergoing degradation/decomposition, their thermal stabilities were investigated using thermogravimetric analysis (TGA). FIG. 13 through FIG. 27 display thermograms for MILs 1 to 15. The thermogram results are summarized in greater detail in the following paragraphs.
# [6] = acetone, chloroform, dichloromethane, acetonitrile, methanol, ethanol, diethyl ether, ethyl acetate, isopropanol at 20% (w/v)
# [7] = hexane, heptane, benzene, toluene at 10% (w/v)
# [8] = hexane, heptane, benzene, toluene at 20% (w/v)
# [9] = twelve organic solvents (without acetonitrile) at 50% (w/v)
structure (smiles),measurement,setting,value
CCCCCCCCOC(=O)COCC(=O)OCCCCCCCC.CCCCCCCCOC(=O)COCC(=O)OCCCCCCCC.CCCCCCCCOC(=O)COCC(=O)OCCCCCCCC.CCCCCCCCOC(=O)COCC(=O)OCCCCCCCC.CCCCCCCCOC(=O)COCC(=O)OCCCCCCCC.CCCCCCCCOC(=O)COCC(=O)OCCCCCCCC.O=C(C=C([O-])C(F)(F)F)C(F)(F)F.O=C(C=C([O-])C(F)(F)F)C(F)(F)F.O=C(C=C([O-])C(F)(F)F)C(F)(F)F.O=C(C=C([O-])C(F)(F)F)C(F)(F)F.O=C(C=C([O-])C(F)(F)F)C(F)(F)F.O=C(C=C([O-])C(F)(F)F)C(F)(F)F.O=C(C=C([O-])C(F)(F)F)C(F)(F)F.O=C(C=C([O-])C(F)(F)F)C(F)(F)F.[Co+2].[Gd+3].[Gd+3] [compound 14],Viscosity (cP),[1],149.1 cP
same,"μeff, effective magnetic moment",[2],12.43 μB
same,Solubility,[3]; [6],"S^b (soluble in acetone, chloroform, dichloromethane, acetonitrile, methanol, ethanol, diethyl ether, ethyl acetate, and isopropanol at 20% (w/v).)"
same,Solubility,[3]; [7],"S^a (soluble in hexane, heptane, benzene, and toluene at 10% (w/v).)"
same,Solubility,[3]; [8],"S^c (soluble in hexane, heptane, benzene, and toluene at 20% (w/v).)"
same,Solubility,[3]; [9],"S^d (soluble in acetone, chloroform, dichloromethane, methanol, ethanol, diethyl ether, ethyl acetate, isopropanol hexane, heptane, benzene, and toluene at 50% (w/v).)"
same,Solubility,[3]; water at 0.01% (w/v),S^f (insoluble in water at 0.01% (w/v).)
same,Onset of MIL volatilization (° C.)^1,[4],126 °C
same,Onset of MIL volatilization (° C.)^2,[5],172.9 °C
CCCCCCCCOC(=O)COCC(=O)OCCCCCCCC.CCCCCCCCOC(=O)COCC(=O)OCCCCCCCC.CCCCCCCCOC(=O)COCC(=O)OCCCCCCCC.CCCCCCCCOC(=O)COCC(=O)OCCCCCCCC.CCCCCCCCOC(=O)COCC(=O)OCCCCCCCC.CCCCCCCCOC(=O)COCC(=O)OCCCCCCCC.O=C(C=C([O-])C(F)(F)F)C(F)(F)F.O=C(C=C([O-])C(F)(F)F)C(F)(F)F.O=C(C=C([O-])C(F)(F)F)C(F)(F)F.O=C(C=C([O-])C(F)(F)F)C(F)(F)F.O=C(C=C([O-])C(F)(F)F)C(F)(F)F.O=C(C=C([O-])C(F)(F)F)C(F)(F)F.O=C(C=C([O-])C(F)(F)F)C(F)(F)F.O=C(C=C([O-])C(F)(F)F)C(F)(F)F.[Co+2].[Ho+3].[Ho+3] [compound 15],Viscosity (cP),[1],216.4 cP
same,"μeff, effective magnetic moment",[2],15.56 μB
same,Solubility,[3]; [6],"S^b (soluble in acetone, chloroform, dichloromethane, acetonitrile, methanol, ethanol, diethyl ether, ethyl acetate, and isopropanol at 20% (w/v).)"
same,Solubility,[3]; [7],"S^a (soluble in hexane, heptane, benzene, and toluene at 10% (w/v).)"
same,Solubility,[3]; [8],"S^c (soluble in hexane, heptane, benzene, and toluene at 20% (w/v).)"
same,Solubility,[3]; [9],"S^d (soluble in acetone, chloroform, dichloromethane, methanol, ethanol, diethyl ether, ethyl acetate, isopropanol hexane, heptane, benzene, and toluene at 50% (w/v).)"
same,Solubility,[3]; water at 0.01% (w/v),S^f (insoluble in water at 0.01% (w/v).)
same,Onset of MIL volatilization (° C.)^1,[4],115 °C
same,Onset of MIL volatilization (° C.)^2,[5],183.3 °C
CCCCCCCCOC(=O)c1ccc(C(=O)OCCCCCCCC)o1.CCCCCCCCOC(=O)c1ccc(C(=O)OCCCCCCCC)o1.CCCCCCCCOC(=O)c1ccc(C(=O)OCCCCCCCC)o1.CCCCCCCCOC(=O)c1ccc(C(=O)OCCCCCCCC)o1.CCCCCCCCOC(=O)c1ccc(C(=O)OCCCCCCCC)o1.CCCCCCCCOC(=O)c1ccc(C(=O)OCCCCCCCC)o1.O=C(C=C([O-])C(F)(F)F)C(F)(F)F.O=C(C=C([O-])C(F)(F)F)C(F)(F)F.O=C(C=C([O-])C(F)(F)F)C(F)(F)F.O=C(C=C([O-])C(F)(F)F)C(F)(F)F.O=C(C=C([O-])C(F)(F)F)C(F)(F)F.O=C(C=C([O-])C(F)(F)F)C(F)(F)F.[Co+2].[Co+2].[Co+2] [compound 10],Viscosity (cP),[1],354.7^b cP
same,"μeff, effective magnetic moment",[2],8.27 μB
same,Solubility,[3]; [6],"S^b (soluble in acetone, chloroform, dichloromethane, acetonitrile, methanol, ethanol, diethyl ether, ethyl acetate, and isopropanol at 20% (w/v).)"
same,Solubility,[3]; [7],"S^a (soluble in hexane, heptane, benzene, and toluene at 10% (w/v).)"
same,Solubility,[3]; [8],"S^c (soluble in hexane, heptane, benzene, and toluene at 20% (w/v).)"
same,Solubility,[3]; [9],"S^d (soluble in acetone, chloroform, dichloromethane, methanol, ethanol, diethyl ether, ethyl acetate, isopropanol hexane, heptane, benzene, and toluene at 50% (w/v).)"
same,Solubility,[3]; water at 0.01% (w/v),S^f (insoluble in water at 0.01% (w/v).)
same,Onset of MIL volatilization (° C.)^1,[4],147 °C
same,Onset of MIL volatilization (° C.)^2,[5],163.0 °C
CCCCCCCCOC(=O)COCC(=O)OCCCCCCCC.CCCCCCCCOC(=O)COCC(=O)OCCCCCCCC.CCCCCCCCOC(=O)COCC(=O)OCCCCCCCC.CCCCCCCCOC(=O)COCC(=O)OCCCCCCCC.CCCCCCCCOC(=O)COCC(=O)OCCCCCCCC.CCCCCCCCOC(=O)COCC(=O)OCCCCCCCC.O=C(C=C([O-])C(F)(F)F)C(F)(F)F.O=C(C=C([O-])C(F)(F)F)C(F)(F)F.O=C(C=C([O-])C(F)(F)F)C(F)(F)F.O=C(C=C([O-])C(F)(F)F)C(F)(F)F.O=C(C=C([O-])C(F)(F)F)C(F)(F)F.O=C(C=C([O-])C(F)(F)F)C(F)(F)F.[Mn+2].[Mn+2].[Mn+2] [compound 6],Viscosity (cP),[1],96.3 cP
same,"μeff, effective magnetic moment",[2],10.25 μB
same,Solubility,[3]; [6],"S^b (soluble in acetone, chloroform, dichloromethane, acetonitrile, methanol, ethanol, diethyl ether, ethyl acetate, and isopropanol at 20% (w/v).)"
same,Solubility,[3]; [7],"S^a (soluble in hexane, heptane, benzene, and toluene at 10% (w/v).)"
same,Solubility,[3]; [8],"S^c (soluble in hexane, heptane, benzene, and toluene at 20% (w/v).)"
same,Solubility,[3]; [9],"S^d (soluble in acetone, chloroform, dichloromethane, methanol, ethanol, diethyl ether, ethyl acetate, isopropanol hexane, heptane, benzene, and toluene at 50% (w/v).)"
same,Solubility,[3]; water at 0.01% (w/v),S^f (insoluble in water at 0.01% (w/v).)
same,Onset of MIL volatilization (° C.)^1,[4],182 °C
same,Onset of MIL volatilization (° C.)^2,[5],259.1 °C
CCCCCCOC(=O)COCC(=O)OCCCCCC.CCCCCCOC(=O)COCC(=O)OCCCCCC.CCCCCCOC(=O)COCC(=O)OCCCCCC.CCCCCCOC(=O)COCC(=O)OCCCCCC.CCCCCCOC(=O)COCC(=O)OCCCCCC.CCCCCCOC(=O)COCC(=O)OCCCCCC.O=C(C=C([O-])C(F)(F)F)C(F)(F)F.O=C(C=C([O-])C(F)(F)F)C(F)(F)F.O=C(C=C([O-])C(F)(F)F)C(F)(F)F.O=C(C=C([O-])C(F)(F)F)C(F)(F)F.O=C(C=C([O-])C(F)(F)F)C(F)(F)F.O=C(C=C([O-])C(F)(F)F)C(F)(F)F.[Ni+2].[Ni+2].[Ni+2] [compound 2],Viscosity (cP),[1],248.6 cP
same,"μeff, effective magnetic moment",[2],5.48 μB
same,Solubility,[3]; [6],"S^b (soluble in acetone, chloroform, dichloromethane, acetonitrile, methanol, ethanol, diethyl ether, ethyl acetate, and isopropanol at 20% (w/v).)"
same,Solubility,[3]; acetonitrile at 50% (w/v),S^e (insoluble in acetonitrile at 50% (w/v).)
same,Solubility,[3]; [7],"S^a (soluble in hexane, heptane, benzene, and toluene at 10% (w/v).)"
same,Solubility,[3]; [8],"S^c (soluble in hexane, heptane, benzene, and toluene at 20% (w/v).)"
same,Solubility,[3]; [9],"S^d (soluble in acetone, chloroform, dichloromethane, methanol, ethanol, diethyl ether, ethyl acetate, isopropanol hexane, heptane, benzene, and toluene at 50% (w/v).)"
same,Solubility,[3]; water at 0.01% (w/v),S^f (insoluble in water at 0.01% (w/v).)
same,Onset of MIL volatilization (° C.)^1,[4],166 °C
same,Onset of MIL volatilization (° C.)^2,[5],257.0 °C
